Laboratory results as given in the kinase profiling compilation of Christmann-Franck et al. (2016).

Test system: RET (human), P07949 [V804M]
Assay: KINOMEscan competition binding
Settings: compound 10.0 µM

| SMILES | kinase still bound, per cent of control [%] |
| --- | --- |
| CCOc1cc(N2CCC(N3CCCCC3)CC2)ccc1Nc1nc(Nc2ccccc2S(=O)(=O)C(C)C)c2cn[nH]c2n1 | 100 |
| CCN1CCN(Cc2ccc(NC(=O)c3ccc(C)c(Oc4ccnc5[nH]ccc45)c3)cc2C(F)(F)F)CC1 | 1 |

Target: LTK (human) (UniProt P29376)
Assay: KINOMEscan competition binding
Settings: compound 10.0 µM

Sequence of LTK (human) (P29376 whole entry, looked up): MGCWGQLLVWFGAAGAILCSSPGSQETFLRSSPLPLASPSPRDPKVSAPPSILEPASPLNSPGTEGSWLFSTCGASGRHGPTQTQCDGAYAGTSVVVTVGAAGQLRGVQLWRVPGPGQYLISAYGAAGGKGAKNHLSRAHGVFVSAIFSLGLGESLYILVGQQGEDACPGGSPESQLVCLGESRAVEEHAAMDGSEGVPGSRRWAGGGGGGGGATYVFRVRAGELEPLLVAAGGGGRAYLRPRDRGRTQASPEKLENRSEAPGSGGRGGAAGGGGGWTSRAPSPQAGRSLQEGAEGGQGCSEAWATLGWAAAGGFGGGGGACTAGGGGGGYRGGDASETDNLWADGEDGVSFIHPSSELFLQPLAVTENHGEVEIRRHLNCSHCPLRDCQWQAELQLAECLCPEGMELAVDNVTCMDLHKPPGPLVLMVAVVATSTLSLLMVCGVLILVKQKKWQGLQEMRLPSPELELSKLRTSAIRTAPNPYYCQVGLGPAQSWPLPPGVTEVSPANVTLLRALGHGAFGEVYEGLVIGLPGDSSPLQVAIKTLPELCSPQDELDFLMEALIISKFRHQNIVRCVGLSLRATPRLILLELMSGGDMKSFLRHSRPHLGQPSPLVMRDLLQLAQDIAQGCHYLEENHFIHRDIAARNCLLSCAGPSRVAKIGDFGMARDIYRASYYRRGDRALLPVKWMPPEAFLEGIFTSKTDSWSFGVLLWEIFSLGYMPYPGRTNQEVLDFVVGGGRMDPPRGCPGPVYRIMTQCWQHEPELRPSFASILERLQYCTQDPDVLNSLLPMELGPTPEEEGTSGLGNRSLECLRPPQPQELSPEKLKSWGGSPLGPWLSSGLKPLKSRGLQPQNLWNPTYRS

| SMILES | kinase still bound, per cent of control [%] |
| --- | --- |
| CCN1CCN(Cc2ccc(NC(=O)c3ccc(C)c(/C=C/c4cnc(Nc5cc(N6CCNCC6)nc(C)n5)cn4)c3)cc2C(F)(F)F)CC1 | 100 |
| COc1cc(N2CCC(N3CCN(C)CC3)CC2)ccc1Nc1ncc(Cl)c(Nc2ccccc2S(=O)(=O)C(C)C)n1 | 0 |
| CCOc1cc(N2CCC(N3CCCCC3)CC2)ccc1Nc1nc(Nc2ccccc2S(=O)(=O)C(C)C)c2cn[nH]c2n1 | 1.7 |
| CCN1CCN(Cc2ccc(NC(=O)c3ccc(C)c(Oc4ccnc5[nH]ccc45)c3)cc2C(F)(F)F)CC1 | 1.2 |

Target: MAPK4 (human) (UniProt P31152)
Assay: KINOMEscan competition binding
Settings: compound 10.0 µM

| SMILES | kinase still bound, per cent of control [%] |
| --- | --- |
| CCN1CCN(Cc2ccc(NC(=O)c3ccc(C)c(/C=C/c4cnc(Nc5cc(N6CCNCC6)nc(C)n5)cn4)c3)cc2C(F)(F)F)CC1 | 100 |
| COc1cc(N2CCC(N3CCN(C)CC3)CC2)ccc1Nc1ncc(Cl)c(Nc2ccccc2S(=O)(=O)C(C)C)n1 | 40 |
| CCOc1cc(N2CCC(N3CCCCC3)CC2)ccc1Nc1nc(Nc2ccccc2S(=O)(=O)C(C)C)c2cn[nH]c2n1 | 100 |

Target: PRKCH (human) (UniProt P24723)
Assay: KINOMEscan competition binding
Settings: compound 10.0 µM

Sequence of PRKCH (human) (P24723 whole entry, looked up): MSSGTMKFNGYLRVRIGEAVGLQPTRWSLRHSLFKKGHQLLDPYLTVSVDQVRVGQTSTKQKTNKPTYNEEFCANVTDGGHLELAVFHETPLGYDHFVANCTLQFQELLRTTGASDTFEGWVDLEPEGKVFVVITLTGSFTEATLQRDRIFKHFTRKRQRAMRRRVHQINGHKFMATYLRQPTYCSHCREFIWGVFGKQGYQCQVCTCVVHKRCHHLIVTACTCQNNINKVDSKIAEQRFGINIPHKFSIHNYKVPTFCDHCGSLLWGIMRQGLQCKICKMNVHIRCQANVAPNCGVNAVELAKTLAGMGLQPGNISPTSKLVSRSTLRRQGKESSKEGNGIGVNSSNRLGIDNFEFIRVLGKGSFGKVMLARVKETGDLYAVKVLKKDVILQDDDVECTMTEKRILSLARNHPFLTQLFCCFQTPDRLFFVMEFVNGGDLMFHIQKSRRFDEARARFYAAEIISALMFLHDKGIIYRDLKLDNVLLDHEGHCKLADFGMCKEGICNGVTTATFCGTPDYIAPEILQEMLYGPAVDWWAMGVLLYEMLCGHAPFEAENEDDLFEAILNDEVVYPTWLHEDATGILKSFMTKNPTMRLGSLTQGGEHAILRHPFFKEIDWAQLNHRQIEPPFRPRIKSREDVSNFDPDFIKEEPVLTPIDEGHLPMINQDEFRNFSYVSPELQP

| SMILES | kinase still bound, per cent of control [%] |
| --- | --- |
| CCN1CCN(Cc2ccc(NC(=O)c3ccc(C)c(/C=C/c4cnc(Nc5cc(N6CCNCC6)nc(C)n5)cn4)c3)cc2C(F)(F)F)CC1 | 100 |
| COc1cc(N2CCC(N3CCN(C)CC3)CC2)ccc1Nc1ncc(Cl)c(Nc2ccccc2S(=O)(=O)C(C)C)n1 | 40 |
| CCOc1cc(N2CCC(N3CCCCC3)CC2)ccc1Nc1nc(Nc2ccccc2S(=O)(=O)C(C)C)c2cn[nH]c2n1 | 100 |

Target: PDGFRB (human) (UniProt P09619)
Assay: KINOMEscan competition binding
Settings: compound 10.0 µM

Sequence of PDGFRB (human) (P09619 whole entry, looked up): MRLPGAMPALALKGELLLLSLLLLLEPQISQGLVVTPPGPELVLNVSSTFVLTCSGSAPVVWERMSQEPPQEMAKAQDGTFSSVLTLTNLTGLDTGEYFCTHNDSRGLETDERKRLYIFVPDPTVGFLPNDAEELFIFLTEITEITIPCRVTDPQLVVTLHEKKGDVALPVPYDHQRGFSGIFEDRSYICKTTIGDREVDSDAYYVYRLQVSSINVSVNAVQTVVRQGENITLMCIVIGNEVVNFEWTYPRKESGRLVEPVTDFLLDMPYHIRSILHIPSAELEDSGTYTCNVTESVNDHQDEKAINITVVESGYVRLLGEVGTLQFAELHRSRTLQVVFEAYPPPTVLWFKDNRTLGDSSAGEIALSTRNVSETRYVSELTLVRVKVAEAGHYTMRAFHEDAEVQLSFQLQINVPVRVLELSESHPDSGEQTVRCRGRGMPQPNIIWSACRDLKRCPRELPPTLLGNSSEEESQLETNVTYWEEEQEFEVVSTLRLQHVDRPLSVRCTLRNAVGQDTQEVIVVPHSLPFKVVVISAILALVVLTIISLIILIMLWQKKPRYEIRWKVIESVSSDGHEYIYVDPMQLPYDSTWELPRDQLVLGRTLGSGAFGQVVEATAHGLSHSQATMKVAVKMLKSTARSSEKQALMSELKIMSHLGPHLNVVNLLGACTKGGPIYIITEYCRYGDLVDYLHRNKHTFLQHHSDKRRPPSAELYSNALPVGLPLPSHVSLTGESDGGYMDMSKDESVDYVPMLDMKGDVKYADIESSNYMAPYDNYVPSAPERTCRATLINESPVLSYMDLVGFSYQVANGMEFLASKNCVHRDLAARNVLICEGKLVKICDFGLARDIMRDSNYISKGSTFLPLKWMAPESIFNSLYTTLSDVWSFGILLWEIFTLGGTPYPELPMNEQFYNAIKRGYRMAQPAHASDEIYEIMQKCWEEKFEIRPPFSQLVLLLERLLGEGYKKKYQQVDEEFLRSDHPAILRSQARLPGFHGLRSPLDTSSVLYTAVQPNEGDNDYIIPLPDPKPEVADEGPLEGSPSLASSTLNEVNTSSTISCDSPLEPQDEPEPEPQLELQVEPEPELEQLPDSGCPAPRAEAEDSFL

| SMILES | kinase still bound, per cent of control [%] |
| --- | --- |
| CCN1CCN(Cc2ccc(NC(=O)c3ccc(C)c(/C=C/c4cnc(Nc5cc(N6CCNCC6)nc(C)n5)cn4)c3)cc2C(F)(F)F)CC1 | 0 |
| COc1cc(N2CCC(N3CCN(C)CC3)CC2)ccc1Nc1ncc(Cl)c(Nc2ccccc2S(=O)(=O)C(C)C)n1 | 0.25 |
| CCOc1cc(N2CCC(N3CCCCC3)CC2)ccc1Nc1nc(Nc2ccccc2S(=O)(=O)C(C)C)c2cn[nH]c2n1 | 69 |
| CCN1CCN(Cc2ccc(NC(=O)c3ccc(C)c(Oc4ccnc5[nH]ccc45)c3)cc2C(F)(F)F)CC1 | 0 |

Target: JAK2 JH1 catalytic (human) (UniProt O60674)
Assay: KINOMEscan competition binding
Settings: compound 10.0 µM

Sequence of JAK2 JH1 catalytic (human) (O60674 whole entry, looked up): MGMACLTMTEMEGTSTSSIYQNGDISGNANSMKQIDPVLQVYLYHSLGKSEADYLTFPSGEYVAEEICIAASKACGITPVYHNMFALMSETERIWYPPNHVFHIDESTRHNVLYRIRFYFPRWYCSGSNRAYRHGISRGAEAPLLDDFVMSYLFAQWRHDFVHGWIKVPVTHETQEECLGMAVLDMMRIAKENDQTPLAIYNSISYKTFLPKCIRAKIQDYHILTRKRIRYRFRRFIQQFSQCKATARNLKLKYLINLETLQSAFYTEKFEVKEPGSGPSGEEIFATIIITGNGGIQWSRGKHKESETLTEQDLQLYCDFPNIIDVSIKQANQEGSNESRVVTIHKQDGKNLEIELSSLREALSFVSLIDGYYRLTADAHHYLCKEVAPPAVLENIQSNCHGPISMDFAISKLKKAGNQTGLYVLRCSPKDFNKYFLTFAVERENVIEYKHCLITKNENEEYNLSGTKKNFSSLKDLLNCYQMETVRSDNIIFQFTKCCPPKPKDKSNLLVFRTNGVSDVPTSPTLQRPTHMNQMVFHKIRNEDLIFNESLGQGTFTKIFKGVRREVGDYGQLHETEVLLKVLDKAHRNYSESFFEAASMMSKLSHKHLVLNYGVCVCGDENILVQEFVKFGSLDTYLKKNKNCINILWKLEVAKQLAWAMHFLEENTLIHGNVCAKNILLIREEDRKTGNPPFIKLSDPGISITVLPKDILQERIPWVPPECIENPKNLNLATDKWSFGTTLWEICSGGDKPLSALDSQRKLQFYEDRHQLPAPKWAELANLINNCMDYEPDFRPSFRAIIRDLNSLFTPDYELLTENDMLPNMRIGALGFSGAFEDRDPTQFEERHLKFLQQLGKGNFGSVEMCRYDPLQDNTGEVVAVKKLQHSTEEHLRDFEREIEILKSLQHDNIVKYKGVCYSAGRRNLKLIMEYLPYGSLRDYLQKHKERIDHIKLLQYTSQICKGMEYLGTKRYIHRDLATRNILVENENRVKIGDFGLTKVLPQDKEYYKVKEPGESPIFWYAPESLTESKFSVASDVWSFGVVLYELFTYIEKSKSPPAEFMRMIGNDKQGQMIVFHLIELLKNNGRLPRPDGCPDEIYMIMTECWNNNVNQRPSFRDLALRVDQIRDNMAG

| SMILES | kinase still bound, per cent of control [%] |
| --- | --- |
| CCN1CCN(Cc2ccc(NC(=O)c3ccc(C)c(/C=C/c4cnc(Nc5cc(N6CCNCC6)nc(C)n5)cn4)c3)cc2C(F)(F)F)CC1 | 29 |
| CCOc1cc(N2CCC(N3CCCCC3)CC2)ccc1Nc1nc(Nc2ccccc2S(=O)(=O)C(C)C)c2cn[nH]c2n1 | 50 |
| CCN1CCN(Cc2ccc(NC(=O)c3ccc(C)c(Oc4ccnc5[nH]ccc45)c3)cc2C(F)(F)F)CC1 | 2.4 |

Target: NEK6 (human) (UniProt Q9HC98)
Assay: KINOMEscan competition binding
Settings: compound 10.0 µM

Sequence of NEK6 (human) (Q9HC98 whole entry, looked up): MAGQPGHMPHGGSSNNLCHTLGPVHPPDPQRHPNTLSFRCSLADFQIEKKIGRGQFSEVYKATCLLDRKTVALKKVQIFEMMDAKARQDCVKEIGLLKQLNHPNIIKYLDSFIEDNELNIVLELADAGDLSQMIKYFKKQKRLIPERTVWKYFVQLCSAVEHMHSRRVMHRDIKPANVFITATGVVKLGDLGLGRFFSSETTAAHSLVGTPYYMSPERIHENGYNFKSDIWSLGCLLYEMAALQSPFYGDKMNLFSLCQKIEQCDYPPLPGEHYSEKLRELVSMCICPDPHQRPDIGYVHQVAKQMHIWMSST

| SMILES | kinase still bound, per cent of control [%] |
| --- | --- |
| CCN1CCN(Cc2ccc(NC(=O)c3ccc(C)c(/C=C/c4cnc(Nc5cc(N6CCNCC6)nc(C)n5)cn4)c3)cc2C(F)(F)F)CC1 | 100 |
| COc1cc(N2CCC(N3CCN(C)CC3)CC2)ccc1Nc1ncc(Cl)c(Nc2ccccc2S(=O)(=O)C(C)C)n1 | 1.8 |
| CCOc1cc(N2CCC(N3CCCCC3)CC2)ccc1Nc1nc(Nc2ccccc2S(=O)(=O)C(C)C)c2cn[nH]c2n1 | 100 |

Target: RPS6KA5 KD1 (human) (UniProt O75582)
Assay: KINOMEscan competition binding
Settings: compound 10.0 µM

| SMILES | kinase still bound, per cent of control [%] |
| --- | --- |
| CCN1CCN(Cc2ccc(NC(=O)c3ccc(C)c(/C=C/c4cnc(Nc5cc(N6CCNCC6)nc(C)n5)cn4)c3)cc2C(F)(F)F)CC1 | 100 |
| COc1cc(N2CCC(N3CCN(C)CC3)CC2)ccc1Nc1ncc(Cl)c(Nc2ccccc2S(=O)(=O)C(C)C)n1 | 40 |
| CCOc1cc(N2CCC(N3CCCCC3)CC2)ccc1Nc1nc(Nc2ccccc2S(=O)(=O)C(C)C)c2cn[nH]c2n1 | 100 |
| CCN1CCN(Cc2ccc(NC(=O)c3ccc(C)c(Oc4ccnc5[nH]ccc45)c3)cc2C(F)(F)F)CC1 | 4.7 |

Target: CAMK2G (human) (UniProt Q13555)
Assay: KINOMEscan competition binding
Settings: compound 10.0 µM

| SMILES | kinase still bound, per cent of control [%] |
| --- | --- |
| CCN1CCN(Cc2ccc(NC(=O)c3ccc(C)c(/C=C/c4cnc(Nc5cc(N6CCNCC6)nc(C)n5)cn4)c3)cc2C(F)(F)F)CC1 | 100 |
| COc1cc(N2CCC(N3CCN(C)CC3)CC2)ccc1Nc1ncc(Cl)c(Nc2ccccc2S(=O)(=O)C(C)C)n1 | 2 |
| CCOc1cc(N2CCC(N3CCCCC3)CC2)ccc1Nc1nc(Nc2ccccc2S(=O)(=O)C(C)C)c2cn[nH]c2n1 | 71 |

Target: CDK14 (human) (UniProt O94921)
Assay: KINOMEscan competition binding
Settings: compound 10.0 µM

Sequence of CDK14 (human) (O94921 whole entry, looked up): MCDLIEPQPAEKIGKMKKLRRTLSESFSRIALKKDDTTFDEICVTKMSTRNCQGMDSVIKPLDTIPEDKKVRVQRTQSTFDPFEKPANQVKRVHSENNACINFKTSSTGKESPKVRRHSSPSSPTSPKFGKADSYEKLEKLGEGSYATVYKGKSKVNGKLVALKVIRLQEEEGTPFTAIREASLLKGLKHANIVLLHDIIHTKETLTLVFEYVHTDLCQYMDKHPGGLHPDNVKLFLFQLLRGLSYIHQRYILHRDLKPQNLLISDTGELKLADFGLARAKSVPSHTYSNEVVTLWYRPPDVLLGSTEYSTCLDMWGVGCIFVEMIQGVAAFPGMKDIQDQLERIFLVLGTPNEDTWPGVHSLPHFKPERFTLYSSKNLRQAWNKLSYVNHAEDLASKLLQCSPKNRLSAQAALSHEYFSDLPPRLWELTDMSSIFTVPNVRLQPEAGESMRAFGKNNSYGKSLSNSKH

| SMILES | kinase still bound, per cent of control [%] |
| --- | --- |
| CCN1CCN(Cc2ccc(NC(=O)c3ccc(C)c(/C=C/c4cnc(Nc5cc(N6CCNCC6)nc(C)n5)cn4)c3)cc2C(F)(F)F)CC1 | 88 |
| COc1cc(N2CCC(N3CCN(C)CC3)CC2)ccc1Nc1ncc(Cl)c(Nc2ccccc2S(=O)(=O)C(C)C)n1 | 40 |
| CCOc1cc(N2CCC(N3CCCCC3)CC2)ccc1Nc1nc(Nc2ccccc2S(=O)(=O)C(C)C)c2cn[nH]c2n1 | 100 |
| CCN1CCN(Cc2ccc(NC(=O)c3ccc(C)c(Oc4ccnc5[nH]ccc45)c3)cc2C(F)(F)F)CC1 | 0.4 |

Target: GSK3B (human) (UniProt P49841)
Assay: KINOMEscan competition binding
Settings: compound 10.0 µM

Sequence of GSK3B (human) (P49841 whole entry, looked up): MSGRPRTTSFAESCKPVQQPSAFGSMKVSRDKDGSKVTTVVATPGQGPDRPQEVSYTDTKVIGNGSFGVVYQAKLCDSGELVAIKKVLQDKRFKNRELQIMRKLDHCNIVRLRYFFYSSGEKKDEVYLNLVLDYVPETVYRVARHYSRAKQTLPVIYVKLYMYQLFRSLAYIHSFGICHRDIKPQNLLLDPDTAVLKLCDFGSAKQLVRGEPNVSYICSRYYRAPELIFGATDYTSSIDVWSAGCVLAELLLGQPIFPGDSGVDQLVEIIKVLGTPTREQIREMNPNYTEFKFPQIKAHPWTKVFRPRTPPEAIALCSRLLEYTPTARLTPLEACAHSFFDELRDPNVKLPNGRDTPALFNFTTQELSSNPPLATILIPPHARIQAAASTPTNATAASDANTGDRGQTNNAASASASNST

| SMILES | kinase still bound, per cent of control [%] |
| --- | --- |
| CCN1CCN(Cc2ccc(NC(=O)c3ccc(C)c(/C=C/c4cnc(Nc5cc(N6CCNCC6)nc(C)n5)cn4)c3)cc2C(F)(F)F)CC1 | 100 |
| COc1cc(N2CCC(N3CCN(C)CC3)CC2)ccc1Nc1ncc(Cl)c(Nc2ccccc2S(=O)(=O)C(C)C)n1 | 40 |
| CCOc1cc(N2CCC(N3CCCCC3)CC2)ccc1Nc1nc(Nc2ccccc2S(=O)(=O)C(C)C)c2cn[nH]c2n1 | 84 |
